Test results reported in patent US20120034613A1, “Apparatus and Method for Testing Relationships Between Gene Expression and Physical Appearance of Skin” (NSE Products, Inc., priority 2010, published 2012).

Tested on: EpidermFT™ Skin Model (EFT-400) full thickness skin cultures
Assay: Affymetrix GeneChip HG U133 Plus 2.0 microarray global gene expression, agent-exposed vs untreated skin cultures
Format: cell-based, human
Details: Salicin 0.5% vs Untreated Control

OCc1ccccc1O[C@@H]1O[C@H](CO)[C@@H](O)[C@H](O)[C@H]1O [Salicin, 2-(Hydroxymethyl)phenyl β-D-glucospyranoside]
Direction KLK1 (216699_s_at) (24 hr): down
Direction KRT5 (201820_at) (24 hr): down
Direction KRT6A (209125_at) (24 hr): down
Direction KRT10 (207023_x_at) (24 hr): down
Direction KRTCAP3 (235148_at) (24 hr): down
Direction LMNA (212089_at) (24 hr): down
Direction LMNA (1554600_s_at) (24 hr): down
Direction LMNB1 (203276_at) (24 hr): down
Direction LOC284837 (1563088_a_at) (24 hr): down
Direction LOC286440 (209733_at) (24 hr): down
Direction LOC400027 (226413_at) (24 hr): down
Direction LOC401233 (1558882_at) (24 hr): down
Direction LOC648245 (227739_at) (24 hr): down
Direction LOC652968 (233528_s_at) (24 hr): down
Direction LOC727820 (227384_s_at) (24 hr): down
Direction LOC100128443 /// MAST4 (210958_s_at) (24 hr): down
Direction LOC100128822 (235174_s_at) (24 hr): down
Direction LOC100130837 (242255_at) (24 hr): down
Direction LOC100131262 (1558152_at) (24 hr): down
Direction LOC100131851 /// LOC100134497 /// LOC401002 /// LOC646674 /// SSBP3 (222482_at) (24 hr): down
Direction LOC100133772 /// SLC16A5 (206600_s_at) (24 hr): down
Direction LOC100134937 (229685_at) (24 hr): down
Direction LPHN1 (47560_at) (24 hr): down
Direction LY75 (205668_at) (24 hr): down
Direction LYSMD4 (228954_at) (24 hr): down
Direction MAFB (218559_s_at) (24 hr): down
Direction MAPRE2 (202501_at) (24 hr): down
Direction MEGF9 (212831_at) (24 hr): down
Direction MFAP5 (213764_s_at) (24 hr): down
Direction MIB2 (226644_at) (24 hr): down
Direction MPP7 (238451_at) (24 hr): down
Direction MTHFR (226929_at) (24 hr): down
Direction MTMR1 (214975_s_at) (24 hr): down
Direction MUC1 (213693_s_at) (24 hr): down
Direction MYO18A /// TIAF1 (202039_at) (24 hr): down
Direction NBEAL2 (212443_at) (24 hr): down
Direction NCF2 (209949_at) (24 hr): down
Direction NCRNA00086 (238697_at) (24 hr): down
Direction PAIP1 (208051_s_at) (24 hr): down
Direction PAIP2B (221868_at) (24 hr): down
Direction PAWR (204005_s_at) (24 hr): down
Direction PAWR (229515_at) (24 hr): down
Direction PDIK1L (227255_at) (24 hr): down
Direction PERP (217744_s_at) (24 hr): down
Direction PIGW (1558292_s_at) (24 hr): down
Direction PLEKHA2 (225136_at) (24 hr): down
Direction PLS3 (201215_at) (24 hr): down
Direction PNMA2 (209598_at) (24 hr): down
Direction POLE2 (205909_at) (24 hr): down
Direction POLH (231115_at) (24 hr): down
Direction POLR3B (219459_at) (24 hr): down
Direction POU3F1 (208345_s_at) (24 hr): down
Direction PPAP2C (209529_at) (24 hr): down
Direction PPP1CB (201409_s_at) (24 hr): down
Direction PPP2CA (208652_at) (24 hr): down
Direction PRDX2 (39729_at) (24 hr): down
Direction PRKX (204061_at) (24 hr): down
Direction PTCH1 (209815_at) (24 hr): down
Direction PTGFR (1555097_a_at) (24 hr): down
Direction PVRL1 (225211_at) (24 hr): down
Direction RAB7B (1553982_a_at) (24 hr): down
Direction RAPGEFL1 (218657_at) (24 hr): down
Direction RHOV (241990_at) (24 hr): down
Direction RICS (203431_s_at) (24 hr): down
Direction RNF170 (226104_at) (24 hr): down
Direction RORA (235567_at) (24 hr): down
Direction RPS6KA5 (204633_s_at) (24 hr): down
Direction RPS6KB2 (203777_s_at) (24 hr): down
Direction SCRN3 (222849_s_at) (24 hr): down
Direction SDCCAG8 (243963_at) (24 hr): down
Direction SEMA4D (203528_at) (24 hr): down
Direction SERPINB1 (213572_s_at) (24 hr): down
Direction SETBP1 (227478_at) (24 hr): down
Direction SHROOM2 (204967_at) (24 hr): down
Direction SLC5A3 (212944_at) (24 hr): down
Direction SLC24A3 (219090_at) (24 hr): down
Direction SLC45A4 (225598_at) (24 hr): down
Direction SLCO3A1 (219229_at) (24 hr): down
Direction SMAP2 (225282_at) (24 hr): down
Direction SMCR7 (235896_s_at) (24 hr): down
Direction SNX21 (1553960_at) (24 hr): down
Direction SNX24 (218705_s_at) (24 hr): down
Direction SORD (201563_at) (24 hr): down
Direction ST8SIA4 (230836_at) (24 hr): down
Direction STK24 (208854_s_at) (24 hr): down
Direction SYNGR2 (201079_at) (24 hr): down
Direction TANC1 (225308_s_at) (24 hr): down
Direction TCEA3 (226388_at) (24 hr): down
Direction TCHP (223455_at) (24 hr): down
Direction TGOLN2 (1554608_at) (24 hr): down
Direction THBD (203888_at) (24 hr): down
Direction TIMM22 (219184_x_at) (24 hr): down
Direction TMC5 (222904_s_at) (24 hr): down
Direction TMEM19 (226860_at) (24 hr): down
Direction TMEM45A (219410_at) (24 hr): down
Direction TMEM50B (225182_at) (24 hr): down
Direction TMEM80 (65630_at) (24 hr): down
Direction TP53I3 (210609_s_at) (24 hr): down
Direction TRAF3IP2 (202987_at) (24 hr): down
Direction TRIM2 (202342_s_at) (24 hr): down
Direction TTC30B (1554588_a_at) (24 hr): down
Direction VPS4B (218171_at) (24 hr): down
Direction WNK1 (39313_at) (24 hr): down
Direction WNK1 (211993_at) (24 hr): down
Direction ZBTB1 (1557036_at) (24 hr): down
Direction ZDHHC21 (241946_at) (24 hr): down
Direction ZFYVE21 (219929_s_at) (24 hr): down
Direction ZHX1 (223213_s_at) (24 hr): down
Direction ZHX1 (223214_s_at) (24 hr): down
Direction ZNF85 (1554445_at) (24 hr): down
Direction ZNF561 (235200_at) (24 hr): down
Direction ZNF589 (219968_at) (24 hr): down
Direction ZNF823 (229732_at) (24 hr): down
Direction ABHD2 (205566_at) (24 hr treatment): up
